In US9872851B2, “Methods of treating portal hypertension” (The Charlotte-Mecklenburg Hospital Authority, priority 2012, dated 2018):

Legend:
[1] = system: Rev-erbα; test: Western blot of Rev-erbα in HSCs treated with pro- and anti-fibrogenic factors; format: cell-based, rat
Procedure: FIGS. 2A-B illustrate the regulation of Rev-erbα expression by pro- and anti-fibrogenic factors. […] Cells were harvested for protein and Western blots performed to detect Rev-erbα.
(§1) Primary rat HSCs were isolated by pronase/collagenase perfusion digestion followed by density gradient centrifugation with Optiprep. Media was replaced every other day to replenish Rev-erb modulator SR6452, which was present at a 10 μM concentration. Cells were treated with MDIR mixture (IBMX, dexamethasone, insulin, rosiglitazone), TGFβ, or DMSO (vehicle). Some experiments were performed with the human HSC cell line, LX-2.
FIG. 2B show results from primary HSCs that were treated with pro-fibrogenic factor TGFβ (5 ng/ml) or myosin inhibitors blebbistatin (Bleb) or BDM (2,3-Butanedione monoxime) for 48 hrs. Cells were harvested for protein and Western blots performed to detect Rev-erbα.

[2] = system: primary HSCs; test: Immunocytochemistry (αSMA, DAPI) and cellular morphology by confocal microscopy; format: cell-based, rat; conditions: HSCs (day 9) treated 72 hrs
Procedure: (§2) A series of experiments were conducted to determine the functional role of Rev-erbα in HSC transdifferentiation. In these experiments, culture-activated primary rat HSCs and human LX-2 cells were used. To determine the effect of Rev-erbα on HSC transdifferentiation and contraction, cells were treated with a specific synthetic modulator, SR6452 (10 μM). mRNA and protein expression were determined by qRT-PCR and Western blot, respectively. Changes in cellular morphology, Rev-erbα expression/localization and αSMA expression were observed by confocal microscopy. Additionally, cell contractility was assessed.
Prior to transfection, culture-activated HSCs (for varying days of activation) were seeded onto glass coverslips. Cells were fixed with 4% paraformaldehyde and stained with anti-αSMA antibody, a marker of HSC activation. Cells were imaged using a Zeiss confocal microscope. The fluorescence indicates Rev-erbα or αSMA expression.
FIGS. 5A-D illustrate that Rev-erb modulator SR6452 can regulate myofibroblast marker expression and HSC contraction. Primary rat HSCs were cultured from quiescence (day Q) to day 5 (FIG. 5A) or from day 9 to day 12 (FIG. 5B) and treated with Rev-erb modulator SR6452. qRT-PCR was performed for myofibroblast gene expression. Samples were normalized with 18S rRNA. […] Gels were then released from plastic surface and contraction monitored after 72 hrs. […]

[3] = system: primary rat HSCs; test: qRT-PCR gene expression in culture-activated primary rat HSCs; format: cell-based
Procedure: as §2, §1
mRNA expression was normalized to 18S rRNA.
(§3) FIGS. 3A-B illustrates that modulation of Rev-erbα activity can regulate adipogenesis. Primary HSCs were culture-activated for 5 days (A) or 15 days (B). Cells were treated with vehicle (DMSO, open bar), or the Rev-erb modulator SR6452 (10 mM, purple bar) for the days indicated. The medium was changed every 48 hrs. FIG. 3A provides a chart summarizing the amount of PPARγ, SREBP1, and Lep mRNA on day 5.
FIGS. 4A-B illustrate that the Rev-erb modulator SR6452 can suppress/decrease ECM gene expression. Primary rat HSCs were cultured from quiescence (day Q) to day 5 (FIG. 4A) or from day 9 to day 12 (FIG. 4B) and treated with Rev-erb modulator SR6452. qRT-PCR was performed to determine ECM gene expression. DMSO was used as the vehicle control, while SR6452 was used as the Rev-erb modulator.
(§4) FIGS. 5A-D illustrate that Rev-erb modulator SR6452 can regulate myofibroblast marker expression and HSC contraction. Primary rat HSCs were cultured from quiescence (day Q) to day 5 (FIG. 5A) or from day 9 to day 12 (FIG. 5B) and treated with Rev-erb modulator SR6452. qRT-PCR was performed for myofibroblast gene expression. Samples were normalized with 18S rRNA. […] HSCs (day 5) were embedded in a collagen gel and treated as indicated for 48 hrs. Gels were then released from plastic surface and contraction monitored after 72 hrs. Materials used were DMSO (vehicle control), SR6452, Rev-erb modulator; and BDM (2,3-Butanedione monoxime), myosin inhibitor.

[4] = system: cirrhotic rats; test: Hemodynamic measurements in bile duct-ligated (BDL) rats; format: in vivo, rat; conditions: 10 μM/kg femoral vein, one hour
Procedure: Studies were performed to determine the in vivo efficacy of using SR6452 as a treatment for portal hypertension. Rats underwent bile duct-ligation (˜5 weeks, until ascites developed) to induce fibrosis and thus portal hypertension. Initial hemodynamic measurements were taken prior to addition of the agonist. SR6452 (10 μM/kg body weight) was administered via the femoral vein and measurements taken again one hour after administration. Experiments were performed 5 weeks after male Sprague-Dawley rats underwent bile duct-ligation (BDL), when cirrhosis was fully established and ascites present. SR6452 (10 μM/kg body weight) was administered via the femoral vein and hemodynamic measurements taken one hour after administration. Hemodynamic studies were performed as previously described (J Hepatol 2012 57:1220-1227). Briefly, a laparotomy was performed under anesthesia. A PE-50 catheter was introduced into a small ileocolic vein and advanced to the portal vein for measurement of portal pressure. The left femoral artery and vein were cannulated with PE-50 catheters for measurement of mean arterial pressure, central venous pressure and blood withdrawal. Via the right carotid artery, another PE-50 catheter was advanced into the left ventricle under pulse curve control, for microsphere application. After insertion of all catheters, rats were allowed to stabilize hemodynamically for 30 min. Cardiac output and organ perfusions were measured using the colored microsphere method as described (J Hepatol 2012 57:1220-1227). Briefly, 300,000 systemic (yellow) microspheres (15 μm diameter) were injected in the left ventricle. The mesenteric portal-systemic shunt volume was estimated after injection of 150,000 blue microspheres in an ileocolic vein.

[5] = system: primary rat HSCs; test: Cell contraction assay (collagen lattice); format: cell-based; conditions: collagen gel, SR6452
Procedure: Primary rat HSCs (day 9, 2-5×10^6 cells/ml) were embedded in a collagen lattice per manufacturer's instructions. Cells were treated with synthetic Rev-erbα ligand SR6452. Collagen gel size change was imaged using a BioSpectrum Imaging System.
as §4

[6] = system: primary HSCs; test: Oil Red O staining / adipogenesis of HSCs; format: cell-based, rat
Procedure: FIGS. 3A-B illustrate how modulation of Rev-erbα activity can regulate adipogenesis. Primary HSCs were culture-activated for 5 days (A) or 15 days (B). Cells were treated with vehicle, DMSO (open bar), or Rev-erb agonist SR6452 ([…], solid bar). FIG. 3A provides a graph summarizing the amount of PPARγ, SREBP1, and Lep mRNA detected after 5 days of culture.
as §1, §3

[7] = SR6452 10 μM, day Q to day 5 or day 9 to day 12

| Compound | cytoplasmic Rev-erbα ([1]; TGFβ 5 ng/ml, 48 hrs) | Rev-erbα protein expression ([1]; Western blot) | morphology of treated primary HSCs [2] | effects on major regulatory and structural genes controlling myofibroblast contraction [3, 7] | expression of key extracellular matrix components, including Type I collagen, fibronectin, and tenascin C [3, 7] | expression of major adipogenic factors, notably PPARγ and SREBP1 ([3]; SR6452 10 μM, mRNA, day 5) | effect on HSC activation ([3]; overall conclusion of the in vitro data) | portal pressure (PP) after SR6452 ([4]; mean, p=0.017) | hepatic-portal vascular resistance after SR6452 ([4]; mean, p=0.043) | splanchnic vascular resistance after SR6452 ([4]; mean, p=0.048) | reduction in hepatic-portal vascular resistance ([4]; vs baseline) | reduction in splanchnic vascular resistance ([4]; vs baseline) | HSC contraction [5] | lipid content in activated HSCs ([6]; SR6452 10 μM, primary HSCs) | HSC adipogenesis ([6]; exposure of quiescent HSCs) |
| --- | --- | --- | --- | --- | --- | --- | --- | --- | --- | --- | --- | --- | --- | --- | --- |
| TGFβ | stabilized | increased | – | – | – | – | – | – | – | – | – | – | – | – | – |
| CC(C)(C)OC(=O)CN(Cc1ccc(Cl)cc1)Cc1ccc([N+](=O)[O-])s1 [SR6452] | – | – | slightly rounded/folded cytoplasm with disoriented actin fibers | repressive effects | significantly down-regulated | up-regulated | suppressive effect | 19.1 mmHg | 8.8 mmHg/min/100 g/ml | 27.5 mmHg/min/100 g/ml | 36% | 13.5% | impeded | increased | promoted |
